Literature values as cited in patent US12605340B2, “Extended release composition of 2-(2-Aminothiazol-4-yl)-N-[4-(2{[(2R)-2-hydroxy-2-phenylethyl] amino} ethyl) phenyl] acetamide” (Zim Laboratories Limited, priority 2020, dated 2026).
Where two headings read alike, the source gives them in different places.

- Solubility (in dimethyl sulfoxide): soluble
- Solubility (in methanol): soluble
- Solubility (in water): practically insoluble
Compound: Nc1nc(CC(=O)Nc2ccc(CCNC[C@H](O)c3ccccc3)cc2)cs1 [Mirabegron, 2(2-aminothiazol-4-yl)-N-[4-(2-{[(2R)-2-hydroxy2phenylethyl]amino}ethyl)phenyl] acetamide]
